In patent publication US7989469B2, “Certain chemical entities, compositions, and methods” (Cytokinetics, Incorporated, priority 2008, dated 2011):

Test system: rabbit skeletal muscle myofibril preparations (approximately 90% fast fibers)
Assay: Activation of fast skeletal muscle fibers: enzymatic activity of myofibril preparations (PUMA assay system)
Format: biochemical
Parameters: unit not given here
Details: detergent treated myofibrils at pCa25%, 500 μM ATP
From the text: Fast fiber activators were identified by measuring the enzymatic activity of muscle myofibril preparations using the proprietary PUMA™ (see, e.g., U.S. Pat. Nos. 6,410,254, 6,743,599, 7,202,051, and 7,378,254) assay system. Myofibril preparations consisted of rabbit skeletal muscle (approximately 90% fast fibers) that had been treated with a detergen (triton X-100) to remove cellular membranes and then homogenized. This preparation retained all of the sarcomeric components in a native conformation and the enzymatic activity was still regulated by calcium. Compounds were tested using a myofibril suspension and a level of calcium sufficient to increase enzymatic activity of the myofibrils to 25% of their maximal rate (termed pCa25%). Enzymatic activity was tracked via a kinetic assay with a UV absorption readout. Hits were identified as compounds that increased the rate of enzymatic activity by greater than 40% at 40 μM. Myofibril preparations are calcium regulated and were screened at a level of calcium sufficient to produce a 25% increase in enzymatic rate. Detergent treated myofibrils were incubated with 500 μM ATP and 40 μM compound and a kinetic read of UV absorbance performed. Data was normalized to control wells.

Compound | AC1.4 Median (cells marked †: Mean value) | AC1.4 Median (median value (no †))
CCC(CC)n1c(O)nc2ncc(Cl)c(-c3cccs3)c21 [6-chloro-1-(ethylpropyl)-7-(2-thienyl)imidazo[4,5-b]pyridin-2-ol] | 0.136† | 
6-chloro-1-(ethylpropyl)-7-imidazolylimidazo[4,5-b]pyridin-2-ol |  | 22.2909
CC(C)(CO)n1c(O)nc2ncc(Cl)c(-c3ccc(F)cc3)c21 [6-chloro-7-(4-fluorophenyl)-1-(2-hydroxy-tert-butyl)imidazo[4,5-b]pyridin-2-ol] |  | 0.760
CC[C@@H](CCO)n1c(O)nc2ncc(Cl)c(-c3ccc(F)cc3)c21 [1-((1S)-1-ethyl-3-hydroxypropyl)-6-chloro-7-(4-fluorophenyl)imidazo[4,5-b]pyridin-2-ol] | 0.475† | 
(tert-butoxy)-N-{4-[6-chloro-1-(ethylpropyl)-2-hydroxyimidazo[4,5-b]pyridin-7-yl]phenyl}-N-methylcarboxamide |  | 42.343
C[C@@H](CCO)n1c(O)nc2ncc(Cl)c(-c3ccc(F)cc3)c21 [1-((1S)-3-hydroxy-1-methylpropyl)-6-chloro-7-(4-fluorophenyl)imidazo[4,5-b]pyridin-2-ol] |  | 2.309
COCC(COC)n1c(O)nc2ncc(Cl)c(-n3cccn3)c21 [6-chloro-1-[2-methoxy-1-(methoxymethyl)ethyl]-7-pyrazolylimidazo[4,5-b]pyridin-2-ol] |  | 27.9068
CC[C@@H](CO)n1c(O)nc2ncc(Cl)c(-n3cccn3)c21 [1-((1S)-1-ethyl-2-hydroxyethyl)-6-chloro-7-pyrazolylimidazo[4,5-b]pyridin-2-ol] |  | 7.2481
CC[C@H](COC(C)=O)c1nc2nc(O)[nH]c2c(-c2ccc(F)cc2)c1Cl [(2S)-2-[6-chloro-7-(4-fluorophenyl)-2-hydroxyimidazo[4,5-b]pyridinyl]butyl acetate] | 0.234† | 
CC[C@@H](CO)n1c(O)nc2ncc(Cl)c(-c3ccc(C)cc3)c21 [1-((1S)-1-ethyl-2-hydroxyethyl)-6-chloro-7-(4-methylphenyl)imidazo[4,5-b]pyridin-2-ol] |  | 2.194
6-chloro-1-(ethylpropyl)-7-(2-fluoro-4-methoxyphenyl)imidazo[4,5-b]pyridin-2-ol |  | 0.942
6-chloro-7-(5-chloro(3-pyridyl))-1-(ethylpropyl)imidazo[4,5-b]pyridin-2-ol |  | 1.899
6-chloro-1-(methylethyl)-7-pyrazolylimidazo[4,5-b]pyridin-2-ol |  | 2.0829
C=CCn1c(O)nc2ncc(Cl)c(-c3ccc(F)cc3)c21 [6-chloro-7-(4-fluorophenyl)-1-prop-2-enylimidazo[4,5-b]pyridin-2-ol] |  | 1.947
CC[C@@H](CO)n1c(O)nc2ncc(Cl)c(-c3ccc(F)cc3)c21 [1-(1S)-1-ethyl-2-hydroxyethyl)-6-chloro-7-(4-fluorophenyl)imidazo[4,5-b]pyridin-2-ol] | 0.363† | 
6-chloro-1-(ethylpropyl)-7-(6-methyl(2-pyridyl))imidazo[4,5-b]pyridin-2-ol |  | 4.048
CCC(C)n1c(O)nc2ncc(Cl)c(-n3cccn3)c21 (stereo not shown) [6-chloro-1-(methylpropyl)-7-pyrazolylimidazo[4,5-b]pyridin-2-ol] |  | 1.3927
6-chloro-1-(ethylpropyl)-7-(6-methoxy(2-pyridyl))imidazo[4,5-b]pyridin-2-ol | 0.562† | 
CCC(CC)n1c(O)nc2ncc(Cl)c(-c3ccsc3)c21 [6-chloro-1-(ethylpropyl)-7-(3-thienyl)imidazo[4,5-b]pyridin-2-ol] | 0.124† | 
methyl 3-[6-chloro-1-(ethylpropyl)-2-hydroxyimidazo[4,5-b]pyridin-7-yl]benzoate |  | 9.682
CC[C@H](COC)n1c(O)nc2ncc(Cl)c(-c3ccc(F)cn3)c21 [1-[(1R)-1-(methoxymethyl)propyl]-6-chloro-7-(5-fluoro(2-pyridyl))imidazo[4,5-b]pyridin-2-ol] |  | 1.142
CCC(CC)n1c(O)nc2ncc(Cl)c(-c3ccc(C#N)c(F)c3)c21 [4-(6-chloro-2-hydroxy-1-(pentan-3-yl)-1H-imidazo[4,5-b]pyridin-7-yl)-2-fluorobenzonitrile] | 0.458† | 
6-chloro-7-(2-chloro-4-methoxyphenyl)-1-(ethylpropyl)imidazo[4,5-b]pyridin-2-ol |  | 1.898
6-chloro-1-(ethylpropyl)-7-(1-methyl(1H-indazol-5-yl))imidazo[4,5-b]pyridin-2-ol |  | 5.365
CC[C@@H](CO)n1c(O)nc2ncc(F)c(-c3ccc(Cl)cc3)c21 [1-((1S)-1-ethyl-2-hydroxyethyl)-7-(4-chlorophenyl)-6-fluoroimidazo[4,5-b]pyridin-2-ol] |  | 2.643

Compound | AC1.4 Median (cells marked †: Mean value) | AC1.4 Median (median value (no †))
CC[C@@H](CO)n1c(O)nc2ncc(Cl)c(-c3ccc(Cl)s3)c21 [1-((1S)-1-ethyl-2-hydroxyethyl)-6-chloro-7-(5-chloro(2-thienyl))imidazo[4,5-b]pyridin-2-ol] | 0.178† | 
6-chloro-7-(5-fluoro(2-pyridyl))-1-(methylethyl)imidazo[4,5-b]pyridin-2-ol |  | 2.323
6-chloro-1-(ethylpropyl)-7-[4-(methoxymethyl)phenyl]imidazo[4,5-b]pyridin-2-ol |  | 34.746
CC[C@@H](CO)n1c(O)nc2ncc(Cl)c(-c3ccsc3)c21 [1-((1S)-1-ethyl-2-hydroxyethyl)-6-chloro-7-(3-thienyl)imidazo[4,5-b]pyridin-2-ol] |  | 0.827
CC[C@H](n1c(O)nc2ncc(Cl)c(-c3ccc(F)cn3)c21)C(C)(C)O [1-((1S)-1-ethyl-2-hydroxy-2-methylpropyl)-6-chloro-7-(5-fluoro(2-pyridyl))imidazo[4,5-b]pyridin-2-ol] |  | 6.420
6-chloro-1-(ethylpropyl)-7-pyrazolylimidazo[4,5-b]pyridin-2-ol |  | 0.3235
CCC(CC)n1c(O)nc2ncc(Cl)c(-c3ccc(S(C)(=O)=O)cc3)c21 [1-[6-chloro-1-(ethylpropyl)-2-hydroxyimidazo[4,5-b]pyridin-7-yl]-4-(methylsulfonyl)benzene] |  | 45.324
CC(C)(C)n1c(O)nc2ncc(Cl)c(-c3ccc(F)cc3)c21 [1-(tert-butyl)-6-chloro-7-(4-fluorophenyl)imidazo[4,5-b]pyridin-2-ol] | 0.199† | 
6-chloro-7-(4-chloro-3-fluorophenyl)-1-(ethylpropyl)imidazo[4,5-b]pyridin-2-ol | 0.116† | 
6-chloro-7-(5-chloro(2-pyridyl))-1-(methylethyl)imidazo[4,5-b]pyridin-2-ol |  | 1.781
6-chloro-1-(ethylpropyl)-7-[3-(hydroxymethyl)phenyl]imidazo[4,5-b]pyridin-2-ol |  | 14.377
CCC(CC)n1c(O)nc2ncc(Cl)c(-c3cccc(C=O)c3)c21 [3-[6-chloro-1-(ethylpropyl)-2-hydroxyimidazo[4,5-b]pyridin-7-yl]benzaldehyde] |  | 1.943
CC[C@H](COC)n1c(O)nc2ncc(Cl)c(-c3ccc(F)cc3)c21 [1-[(1R)-1-(methoxymethyl)propyl]-6-chloro-7-(4-fluorophenyl)imidazo[4,5-b]pyridin-2-ol] |  | 0.249
CCC(CC)n1c(O)nc2ncc(Cl)c(-c3ccnc(C#N)c3)c21 [4-(6-chloro-2-hydroxy-1-(pentan-3-yl)-1H-imidazo[4,5-b]pyridin-7-yl)picolinonitrile] |  | 9.842
CC(C)n1c(O)nc2ncc(Cl)c(-c3ccc(F)cc3)c21 [6-chloro-7-(4-fluorophenyl)-1-(methylethyl)imidazo[4,5-b]pyridin-2-ol] | 0.096† | 
CC[C@H](c1nc2nc(O)[nH]c2c(-c2ccc(F)cc2)c1Cl)C(CO)CO [2-{(1S)-1-[6-chloro-7-(4-fluorophenyl)-2-hydroxyimidazo[4,5-b]pyridinyl]propyl}propane-1,3-diol] |  | 4.6812
6-chloro-7-(3-chlorophenyl)-1-(ethylpropyl)imidazo[4,5-b]pyridin-2-ol | 0.330† | 
{3-[6-chloro-1-(ethylpropyl)-2-hydroxyimidazo[4,5-b]pyridin-7-yl]phenyl}-N,N-dimethylcarboxamide |  | 21.245
CC(C)CC(CO)n1c(O)nc2ncc(Cl)c(-c3ccc(F)cc3)c21 (stereo not shown) [6-chloro-7-(4-fluorophenyl)-1-[2-hydroxy-1-(2-methylpropyl)ethyl]imidazo[4,5-b]pyridin-2-ol] |  | 0.210
CC[C@@H](CC(C)(C)O)n1c(O)nc2ncc(Cl)c(-c3ccc(F)cc3)c21 [1-((1S)-1-ethyl-3-hydroxy-3-methylbutyl)-6-chloro-7-(4-fluorophenyl)imidazo[4,5-b]pyridin-2-ol] |  | 1.0092
CC[C@@H](CO)n1c(O)nc2ncc(Cl)c(-c3ccccc3)c21 [1-((1S)-1-ethyl-2-hydroxyethyl)-6-chloro-7-phenylimidazo[4,5-b]pyridin-2-ol] |  | 1.474
2-[6-chloro-1-(ethylpropyl)-2-hydroxyimidazo[4,5-b]pyridin-7-yl]benzenecarbonitrile |  | 2.886
6-chloro-1-(ethylpropyl)-7-(3-pyridyl)imidazo[4,5-b]pyridin-2-ol |  | 8.030
6-chloro-1-(ethylpropyl)-7-(4-methoxyphenyl)imidazo[4,5-b]pyridin-2-ol |  | 0.728
